Publication PMC12162873, “Modulating phosphatase DUSP22 with BML-260 ameliorates skeletal muscle wasting via Akt independent JNK-FOXO3a repression” (EMBO Molecular Medicine, 2025)

Legend:
[1] = target: T1, GST-tagged-DUSP22 (Homo sapiens, UniProt Q9NRW4); assay: DUSP22 phosphatase activity assay (EnzChek kit, DiFMUP substrate); assay type: biochemical; conditions: 45 min at room temperature, read-out: IC50, inhibition of DUSP22 activity
T1 construct: purchased Sigma-Aldrich SRP5021
T1 sequence (Q9NRW4 1-184): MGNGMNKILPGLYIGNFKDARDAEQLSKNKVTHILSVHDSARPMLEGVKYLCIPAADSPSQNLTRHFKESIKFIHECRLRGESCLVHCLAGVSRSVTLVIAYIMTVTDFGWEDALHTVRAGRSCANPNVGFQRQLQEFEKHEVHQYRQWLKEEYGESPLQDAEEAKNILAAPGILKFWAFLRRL
Protocol: The phosphatase activity of purified DUSP22 was measured using the EnzChek® Phosphatase Assay Kit (E12020, ThermoFisher, MA, USA) following the manufacturer’s instructions. In brief, for the assay a 200 µM 6,8-difluoro-4-methylumbelliferyl phosphate (DiFMUP) working solution was prepared. 50 µL DiFMUP solution was added to each well of a black-walled microplate, followed by a 50 µL sample containing GST-tagged-DUSP22 (SRP5021, Sigma-Aldrich, MO, USA) or 1X reaction buffer, to give a total reaction volume of 100 µL per well. BML-260 and 1X reaction buffer in a 50 µL volume were then added to each well. The microplate was incubated at room temperature for 45 min in the dark and fluorescence was measured at excitation 360 nm and emission 455 nm (SpectraMAX Gemini XS, Molecular Devices, CA, USA).
A) Phosphatase activity assay for DUSP22 and inhibition by BML-260. […] (n=4) B) CB-Dock2 molecular docking analysis of BML-260 binding to the active site of DUSP22, DUSP22 with an active site mutation (at C88S), and DUSP15, which is a DUSP member with the highest homology with DUSP22 (as assessed by sequence alignment).
BML-260 binding. BML-260 bound DUSP15 at the interface of the A and B chain, distinct from the predicted active site at position 85. n represents technical replicates analyzed by Stu-dent’s t test. […]

[2] = tested on: TA muscle of C57BL/6 mice; assay: Whole genome RNA-Seq of TA muscle of geriatric mice; assay type: in vivo, mouse; conditions: 5 mg/kg IP every 24 h for 4 weeks
Description: Figure 8 Whole genome RNA Seq analysis of DUSP22 pharmacological targeting in geriatric mouse TA muscle. (A) Principal component analysis of gene expression variance in the vehicle treated (Con) and BML-260 treated groups (n = 3). (B) Volcano plot of differentially expressed genes. Selected genes linked to FOXO3a signaling are indicated. (C) Expression analysis of genes related to FOXO3a signaling measured by overall TPM fold change. The control was set as the baseline value of 1. A value of 2 would indicate a 2-fold increase, and 0.5 would indicates a 2-fold decrease. (D) Expression of selected genes linked to FOXO3a signaling as normalized counts from the raw read. (E) Expression of the exercise-induced myokine musclin (Ostn). (F) Gene ontology (GO) analysis of the […] muscle cell differentiation and muscle fiber development. Also shown are Six1 and Six4 (which specify fast twitch myofiber development), Ostn and fast myosin (MYH4; the predominant myosin type in the fast-twitch TA muscle). Box plots represent the distribution of Fbxo32, Trim63, Fbxo30, Gadd45a, Ctsl, Bnip3, Ostn expression levels. The center line indicates the median (50th percentile, Q2), representing the middle value of the dataset. The box bounds correspond to the interquartile range (IQR), extending from the 25th percentile (Q1, lower bound) to the 75th percentile (Q3, upper bound). Whiskers extend to the smallest and largest values within 1.5 × IQR from Q1 and Q3, representing the minimum (lower whisker) and maximum (upper whisker) values within this range. […] Error bars represent the standard error of the mean (SEM). Source data are available online for this figure.
RNA samples were harvested from the TA muscles of 24–26-month-old male C57BL/6 mice treated as follows: (1) vehicle alone (5% DMSO + 5% tween 80) and (2) 5 mg/kg BML-260. Mice were treated by IP delivery every 24 h for 4 weeks (n = 3 per group). RNA-Seq was provided by Macrogen, Republic of Korea. Prior to the commencement of sequencing, QC was carried out using FastQC v0.11.7 (http://www.bioinformatics.babraham.ac.uk/projects/fastqc/). Illumina paired ends or single ends in the sequenced samples were trimmed using Trimmomatic 0.38 with various parameters (http://www.usadellab.org/cms/?page=trimmomatic). The sequences of the samples were mapped and analyzed using HISAT2 version 2.1,0, Bowtie2 2.3.4.1 (https://ccb.jhu.edu/software/hisat2/index.shtml). Potential transcripts and multiple splice variants were assembled using StringTie version 2.1.3b (https://ccb.jhu.edu/software/stringtie/). The normalized sample counts were generated using DESeq2, which was also used for normalization, visualization, and differential analysis. PCA was performed using normalized sample counts. The “apeglm” type was used to calculate shrink log2 fold changes.

[3] = tested on: adipocytes; parameters: method as in Feng et al, 2019; conditions: ref Feng et al, 2019; cited from earlier work

IC50 [1]: 54 µM
SMILES: O=C(O)c1ccc(N2C(=O)C(=Cc3ccccc3)SC2=S)cc1 (stereo in doubt) [BML-260]
expression of Six1 and Six4 [2]: upregulated | expression of fast myosin (MYH4) [2]: increased | expression of musclin (OSTN) [2]: upregulated | genes linked to FOXO3a signaling (including atrogin-1 and MuRF-1) [2]: downregulated | genes linked to the PI3K-Akt pathway [2]: downregulated | number of differentially expressed genes (DEGs) ([2]; versus vehicle): 350 | expression of uncoupling protein-1 (UCP-1) [3]: upregulates
